In one assay the target is T1, ROCK2 (Homo sapiens, UniProt O75116).
T1 construct: N-terminal 6His-tagged ROCK2 catalytic domain 11-552; 6His (N); purchased Dundee University, UK; host or cells: baculovirus expression system
Kind of assay: ROCK2 inhibition assay (ADP-Glo kinase assay, called ROCK2 binding activity). It counts as biochemical. The note with it: 20 μM ATP, 1 hour pre-incubation, read-out: ROCK 2 (IC50 category). On the procedure: ROCK2 Binding Activity: Assay for ROCK2 inhibition was performed using the protein construct N-terminal 6His-tagged ROCK2 catalytic domain 11-552 (Dundee University, UK). Protein was purified from a baculovirus expression system. Long S6 peptide ([…]) was used as substrate. Kinase reactions were carried out in 15 μl volume in a 96-well plate (black, half area) using 1.25 nM constitutively active ROCK2 kinase, 100 μM long S6 peptide, 20 μM ATP and test compound in DMSO (or DMSO only for controls). The final concentration of DMSO was 1%. Assay buffer was 50 mM HEPES pH 7.5 supplemented with 0.2 mM EDTA, 10 mM magnesium acetate, 0.01% Tween-20, 1 mM DTT and 0.01% BSA. Test compounds were pre-incubated with ROCK2 kinase for 1 hour before addition of ATP and long S6 peptide. After incubation for a further 1 hour, the amount of ADP produced was measured using ADP-Glo Kinase Assay (Promega) as per manufacturer's instructions. The luminescence was measured on a PHERAstar FS (BMG Labtech). The concentration of test compound required to inhibit ADP production by 50% (the IC50) was calculated using a four-parameter logistic function with software by Dotmatics. […] The category “+” refers to compounds with a ROCK2 or ROCK1 IC50 value of >10 μM. The category “++” refers to compounds with a ROCK2 or ROCK1 IC50 value of 10 to 3 μM. The category “+++” refers to compounds with a ROCK1 or ROCK2 IC50 value of 3 to 0.3 μM. The category “++++” refers to compounds with a ROCK1 or ROCK2 IC50 value of <0.3 μM.
In general terms: ADP-Glo first removes unused ATP, then detects ADP through luciferase.

Another assay deals with ROCK1 (Homo sapiens, UniProt Q13464). Kind of assay: ROCK1 inhibition assay (ROCK1 binding activity, as determined by the assay described for ROCK2). In kind it is biochemical. Particulars: read-out: ROCK 1 (IC50 category). On the procedure: Assay for ROCK2 inhibition was performed using the protein construct N-terminal 6His-tagged ROCK2 catalytic domain 11-552 (Dundee University, UK). Protein was purified from a baculovirus expression system. Long S6 peptide ([…]) was used as substrate. Kinase reactions were carried out in 15 μl volume in a 96-well plate (black, half area) using 1.25 nM constitutively active ROCK2 kinase, 100 μM long S6 peptide, 20 μM ATP and test compound in DMSO (or DMSO only for controls). The final concentration of DMSO was 1%. Assay buffer was 50 mM HEPES pH 7.5 supplemented with 0.2 mM EDTA, 10 mM magnesium acetate, 0.01% Tween-20, 1 mM DTT and 0.01% BSA. Test compounds were pre-incubated with ROCK2 kinase for 1 hour before addition of ATP and long S6 peptide. After incubation for a further 1 hour, the amount of ADP produced was measured using ADP-Glo Kinase Assay (Promega) as per manufacturer's instructions. The luminescence was measured on a PHERAstar FS (BMG Labtech). The concentration of test compound required to inhibit ADP production by 50% (the IC50) was calculated using a four-parameter logistic function with software by Dotmatics. […] The category “+” refers to compounds with a ROCK2 or ROCK1 IC50 value of >10 μM. The category “++” refers to compounds with a ROCK2 or ROCK1 IC50 value of 10 to 3 μM. The category “+++” refers to compounds with a ROCK1 or ROCK2 IC50 value of 3 to 0.3 μM. The category “++++” refers to compounds with a ROCK1 or ROCK2 IC50 value of <0.3 μM.
Chain of ROCK1 (Q13464 whole entry, the tested form may be a part): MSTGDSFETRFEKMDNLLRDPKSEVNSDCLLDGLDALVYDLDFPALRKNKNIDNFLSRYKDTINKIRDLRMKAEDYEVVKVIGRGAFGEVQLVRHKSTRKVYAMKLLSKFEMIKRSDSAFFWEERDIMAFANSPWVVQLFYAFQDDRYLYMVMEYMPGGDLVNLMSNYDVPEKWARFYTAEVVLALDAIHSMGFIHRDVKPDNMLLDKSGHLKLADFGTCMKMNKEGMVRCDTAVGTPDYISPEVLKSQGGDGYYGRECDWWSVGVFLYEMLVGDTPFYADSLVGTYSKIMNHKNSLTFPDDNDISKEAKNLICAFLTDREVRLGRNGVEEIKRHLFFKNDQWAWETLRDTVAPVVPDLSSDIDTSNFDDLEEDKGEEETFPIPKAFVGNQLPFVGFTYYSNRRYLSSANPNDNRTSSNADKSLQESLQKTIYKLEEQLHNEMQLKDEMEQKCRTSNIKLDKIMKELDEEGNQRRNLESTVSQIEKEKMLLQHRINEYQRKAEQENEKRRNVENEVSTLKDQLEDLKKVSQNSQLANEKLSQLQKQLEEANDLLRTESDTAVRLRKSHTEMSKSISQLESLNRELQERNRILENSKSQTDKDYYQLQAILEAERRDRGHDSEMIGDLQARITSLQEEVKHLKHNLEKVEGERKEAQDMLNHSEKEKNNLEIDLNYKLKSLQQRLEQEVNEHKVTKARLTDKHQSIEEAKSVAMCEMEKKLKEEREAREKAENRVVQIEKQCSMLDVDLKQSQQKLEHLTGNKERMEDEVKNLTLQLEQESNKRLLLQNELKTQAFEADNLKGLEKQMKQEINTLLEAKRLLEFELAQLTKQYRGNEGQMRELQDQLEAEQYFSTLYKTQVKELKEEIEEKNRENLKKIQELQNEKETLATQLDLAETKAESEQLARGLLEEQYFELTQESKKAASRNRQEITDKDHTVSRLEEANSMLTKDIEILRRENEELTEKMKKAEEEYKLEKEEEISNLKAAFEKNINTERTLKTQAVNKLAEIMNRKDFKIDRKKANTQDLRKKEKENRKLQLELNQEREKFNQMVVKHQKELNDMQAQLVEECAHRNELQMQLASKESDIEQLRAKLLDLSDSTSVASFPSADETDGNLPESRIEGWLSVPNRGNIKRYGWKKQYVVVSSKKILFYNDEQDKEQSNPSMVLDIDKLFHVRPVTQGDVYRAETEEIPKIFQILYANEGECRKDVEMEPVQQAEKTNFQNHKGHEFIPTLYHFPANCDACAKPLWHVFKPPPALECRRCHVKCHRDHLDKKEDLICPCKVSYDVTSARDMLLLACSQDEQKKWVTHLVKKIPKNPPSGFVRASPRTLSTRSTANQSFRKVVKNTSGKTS

pIC50: −log10 of the molar value.

T1 sequence (O75116 11-552): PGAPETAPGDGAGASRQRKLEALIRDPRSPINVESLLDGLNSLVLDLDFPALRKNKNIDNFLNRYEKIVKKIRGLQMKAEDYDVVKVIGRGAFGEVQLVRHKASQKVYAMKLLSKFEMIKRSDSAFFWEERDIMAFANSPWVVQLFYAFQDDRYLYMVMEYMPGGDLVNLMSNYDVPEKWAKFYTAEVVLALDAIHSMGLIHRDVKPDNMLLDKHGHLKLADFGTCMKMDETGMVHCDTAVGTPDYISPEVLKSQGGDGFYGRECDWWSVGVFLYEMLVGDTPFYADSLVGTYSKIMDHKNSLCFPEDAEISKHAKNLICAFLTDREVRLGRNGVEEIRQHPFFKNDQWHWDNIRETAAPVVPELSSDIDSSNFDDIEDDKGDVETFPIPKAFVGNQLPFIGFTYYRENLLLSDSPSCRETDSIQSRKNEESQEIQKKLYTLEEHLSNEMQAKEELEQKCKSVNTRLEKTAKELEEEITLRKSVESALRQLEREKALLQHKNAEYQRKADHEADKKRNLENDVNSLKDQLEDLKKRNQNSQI

Take `CCn1nc(-c2ccc(C3CCNCC3)cc2)nc1Nc1ccc2c(c1)CNC2=O` [Example 54]: the values for the negative-log IC50 (pIC50) at ROCK2 and on ROCK1 were 5.00 to 5.52 and < 5.00, respectively.

On to `CCn1nc(-c2ccc(-c3cnc(C4CC4)n3C)c(C)c2)nc1Nc1ccc2c(c1)C(C)NC2=O` (stereo not shown) [Example 65], for which the results for the pIC50 at ROCK2 and on ROCK1 were > 6.52 and 5.00 to 5.52, respectively.

Take `CCn1nc(-c2cnc(-c3ccc(C4CC4)cc3)c(C)c2)nc1Nc1cc2c(cc1C)C(=O)NC2C` (stereo not shown) [Example 105]: the pIC50 (usually the IC50 on a negative log10 scale, so that one unit is a factor of ten) on ROCK2 is > 6.52; at ROCK1 it was 5.00 to 5.52.

Take `CCn1nc(-c2ccc(-c3ccn(C)c3)c(C)c2)nc1Nc1cc2c(cc1C)C(=O)NC2C` (stereo not shown) [Example 129]: the pIC50 on ROCK2 is > 6.52; at ROCK1 it was 5.00 to 5.52.

Consider `CCn1nc(-c2ccc(-c3ccc(C)nc3)cc2C)nc1Nc1cc2c(cc1F)C(=O)NC2C` (stereo not shown) [Example 149], for which the values for the pIC50 at ROCK2 and on ROCK1 were > 6.52 and < 5.00, respectively.

For `CCn1nc(-c2cc(C)c(-c3ccc(C)nc3)cc2F)nc1Nc1ccc2c(c1)C(C)NC2=O` (stereo not shown) [Example 98], the pIC50 on ROCK2 was > 6.52; on ROCK1, 5.00 to 5.52.

Turning to `CCn1nc(-c2ccc(-c3ccc(C)nc3)cc2)nc1Nc1cc2c(cc1C)C(=O)NC2C` (single isomer, unassigned) [Example 84], the negative logarithm of the IC50 (pIC50) at ROCK2 was > 6.52; at ROCK1 it was 5.00 to 5.52.

For `CCn1nc(-c2ccc(-n3cnc(C4CC4)c3)cc2)nc1Nc1ccc2c(c1)C(C)NC2=O` (stereo not shown) [Example 21], the values for the pIC50 at ROCK2 and on ROCK1 were > 6.52 and 5.00 to 5.52, respectively.

As to `CCn1nc(-c2ccc(-c3ccc(C4CC4)nc3)cc2)nc1Nc1ccc2c(c1)C1(CC1)NC2=O` [Example 55], the pIC50 was > 6.52 on ROCK2 and < 5.00 on ROCK1.

For the molecule `CCn1nc(-c2ccc(C3CCN(C(C)C(F)(F)F)CC3)cc2)nc1Nc1cc2c(cc1C)C(=O)NC2C` (stereo not shown) [Example 127], the pIC50 at ROCK2 and on ROCK1 was 5.52 to 6.52 each time.

Consider `CCn1nc(-c2cc(C)c(-c3ccc(C4CC4)nc3)cc2C)nc1Nc1ccc2c(c1)C(C)NC2=O` (stereo not shown) [Example 111], for which the pIC50 was > 6.52 at ROCK2 and < 5.00 on ROCK1.

As to `CCn1nc(-c2ccc(C3CCN(CC(F)(F)F)CC3)cc2C)nc1Nc1cc2c(cc1C)C(=O)NC2C` (stereo not shown) [Example 131], the negative-log IC50 (pIC50) was > 6.52 on ROCK2 and < 5.00 on ROCK1.

On to `CCn1nc(-c2ccc(C3CCN(CC(F)(F)F)CC3)cc2)nc1Nc1cc2c(cc1C)C(=O)NC2C` (stereo not shown) [Example 123], for which the pIC50 is 5.52 to 6.52 at ROCK2 and < 5.00 at ROCK1.

As to `CCn1nc(-c2ccc(-c3ccc(C)nc3)cc2)nc1Nc1ccc2c(c1)C(C)NC2=O` (stereo not shown) [Example 61], the pIC50 is > 6.52 on ROCK2 and 5.00 to 5.52 on ROCK1.

Regarding `CCn1nc(-c2ccc(-c3ccc(C)cn3)c(C)c2)nc1Nc1cc2c(cc1C)C(=O)NC2C` (stereo not shown) [Example 89], the negative-log IC50 (pIC50) on ROCK2 was > 6.52; on ROCK1 it was < 5.00.

As for `CCn1nc(-c2ccc(-c3cccnc3)cc2)nc1Nc1ccc2c(c1)CNC2=O` [Example 29], the pIC50 at ROCK2 was > 6.52; at ROCK1 it was 5.00 to 5.52.

As to `CCn1nc(-c2ccc(-c3ccc(C4CC4)nc3)c(F)c2)nc1Nc1ccc2c(c1)CNC2=O` [Example 37], the pIC50 at ROCK2 is > 6.52; at ROCK1, < 5.00.

For `CCn1nc(-c2ccc(C3CCN(CC(F)(F)F)CC3)cc2)nc1Nc1cc2c(cc1F)C(=O)NC2C` (stereo not shown) [Example 146], the pIC50 at ROCK2 was 5.52 to 6.52; at ROCK1, < 5.00.

With `CCn1nc(-c2ccc(-c3ccc(C4CC4)nc3)cc2)nc1Nc1cc2c(cc1F)C(=O)N[C@@H]2C` [Example 160], the results for the pIC50 on ROCK2 and on ROCK1 were > 6.52 and 5.00 to 5.52, respectively.

As to `CCn1nc(-c2ccc(C3CCN(C)CC3)c(C)c2)nc1Nc1cc2c(cc1C)C(=O)NC2C` (stereo not shown) [Example 144], the pIC50 on ROCK2 and on ROCK1 was < 5.00 each time.

As to `CCn1nc(-c2ccc(-c3ccc(C)nc3)cc2)nc1Nc1cc2c(cc1C)C(=O)NC2C` (stereo not shown) [Example 41], the pIC50 on ROCK2 was > 6.52; at ROCK1 it was 5.00 to 5.52.

Regarding `CCn1nc(-c2ccc(-c3ccc(C)nc3)c(F)c2)nc1Nc1cc2c(cc1C)C(=O)NC2C` (stereo not shown) [Example 57], the figures for the negative logarithm of the IC50 (pIC50) on ROCK2 and on ROCK1 were > 6.52 and < 5.00, respectively.

With `CCn1nc(-c2ccc(-c3ccc(C)nc3)c(C)c2)nc1Nc1ccc2c(c1)C1(CC1)NC2=O` [Example 51], the negative logarithm of the IC50 (pIC50) at ROCK2 is > 6.52; at ROCK1, < 5.00.

Take `CCn1nc(-c2ccc(-c3cnc(C4CC4)n3C)cc2)nc1Nc1ccc2c(c1)CNC2=O` [Example 25]: the pIC50 is > 6.52 on ROCK2 and 5.00 to 5.52 at ROCK1.

Consider `CCn1nc(-c2ccc(-c3ccc(C)nc3C)c(C)c2)nc1Nc1cc2c(cc1C)C(=O)NC2C` (stereo not shown) [Example 92], for which the pIC50 was > 6.52 on ROCK2 and < 5.00 on ROCK1.

As for `Cn1nc(-c2cccc(C(=O)NCC(F)(F)F)c2)nc1Nc1ccc2c(c1)CNC2=O` [Example 9], the pIC50 is 5.00 to 5.52 at ROCK2 and < 5.00 at ROCK1.

For the molecule `CCn1nc(-c2cc(C)c(-c3ccc(C4CC4)cn3)cc2F)nc1Nc1ccc2c(c1)C(C)NC2=O` (stereo not shown) [Example 134], the pIC50 on ROCK2 is > 6.52; at ROCK1, < 5.00.

For the molecule `CCn1nc(-c2ccc(-n3cnc(C4CC4)c3)c(F)c2)nc1Nc1cc2c(cc1C)C(=O)NC2C` (stereo not shown) [Example 82], the negative-log IC50 (pIC50) on ROCK2 was > 6.52; at ROCK1, 5.00 to 5.52.

`CCn1nc(-c2ccc(-c3cnn(CC(F)(F)F)c3)cc2)nc1Nc1cc2c(cc1C)C(=O)N[C@H]2C` [Example 162]: the pIC50 at ROCK2 was > 6.52; on ROCK1 it was 5.00 to 5.52.

Take `CCn1nc(-c2ccc(C3CCNCC3)c(C)c2)nc1Nc1cc2c(cc1C)C(=O)NC2C` (stereo not shown) [Example 141]: the pIC50 on ROCK2 was 5.00 to 5.52; at ROCK1, < 5.00.

`CCn1nc(-c2ccc(-c3ccc(C)nc3)cc2)nc1Nc1cnc2c(c1)CNC2=O` [Example 46]: the pIC50 was 5.52 to 6.52 on ROCK2 and < 5.00 on ROCK1.

Take `CCn1nc(-c2ccc(-c3ccc(C4CC4)nc3)c(C)c2)nc1Nc1cc2c(cc1C)C(=O)NC2C` (stereo not shown) [Example 48]: the negative logarithm of the IC50 (pIC50) on ROCK2 is > 6.52; on ROCK1, 5.00 to 5.52.

As to `CCn1nc(-c2ccc(-c3ccc(C4CC4)nc3)c(C)c2)nc1Nc1cc2c(cc1C)C(=O)NC2C` (stereo not shown) [Example 156], the pIC50 at ROCK2 was 5.52 to 6.52; at ROCK1, < 5.00.

Regarding `CCn1nc(-c2ccc(-c3ccnc(C)c3)c(C)c2)nc1Nc1ccc2c(c1)CNC2=O` [Example 26], the pIC50 is > 6.52 on ROCK2 and 5.00 to 5.52 on ROCK1.

With `CCn1nc(-c2ccc(C3CCC(C)NC3)cc2C)nc1Nc1cc2c(cc1C)C(=O)NC2C` (stereo not shown) [Example 155], the negative logarithm of the IC50 (pIC50) is 5.00 to 5.52 at ROCK2 and < 5.00 at ROCK1.

In the case of `CCn1nc(-c2ccc(-c3ccccn3)cc2)nc1Nc1ccc2c(c1)CNC2=O` [Example 28], the pIC50 on ROCK2 was > 6.52; at ROCK1, 5.00 to 5.52.

For `CCn1nc(-c2ccc(-c3cnn(CC(F)(F)F)c3)cc2C)nc1Nc1cc2c(cc1C)C(=O)NC2C` (stereo not shown) [Example 153], the pIC50 at ROCK2 was > 6.52; on ROCK1, 5.52 to 6.52.

As for `CCn1nc(-c2ccc(-c3ccnc(C4CC4)c3)c(F)c2)nc1Nc1ccc2c(c1)CNC2=O` [Example 33], the pIC50 at ROCK2 is > 6.52; on ROCK1, 5.00 to 5.52.

As to `CCn1nc(-c2cc(C)c(-c3ccc(C4CC4)cn3)cc2F)nc1Nc1cc2c(cc1C)C(=O)NC2C` (stereo not shown) [Example 109], the values for the negative logarithm of the IC50 (pIC50) on ROCK2 and on ROCK1 were > 6.52 and 5.00 to 5.52, respectively.

For the molecule `Cc1nc(C2CC2)cn1-c1ccc(-c2nc(Nc3ccc4c(c3)CNC4=O)n(C)n2)cc1` [Example 3], the values for the pIC50 on ROCK2 and at ROCK1 were > 6.52 and < 5.00, respectively.

For `CCn1nc(-c2ccc(-c3ccc(C4CC4)nc3)c(C)c2)nc1Nc1ccc2c(c1)C1(CC1)NC2=O` [Example 49], the pIC50 on ROCK2 is > 6.52; on ROCK1, < 5.00.

The values are drawn from patent US20250122173A1, “MODULATORS OF RHO-ASSOCIATED PROTEIN KINASE” (Redx Pharma Limited, priority 2022, published 2025).
